{"source": "patent US11071768B2", "about": "“Caspofungin compositions for inhalation” (TRILOGY THERAPEUTICS, INC., priority 2018, dated 2021)", "key": {"[1]": {"experiment": "Toxicology observations in the rat pharmacokinetic study", "format": "in vivo", "conditions": "male rats, nose-only inhalation or intravenous injection", "protocol": "A detailed, hand-held physical examination was conducted on all animals once during the quarantine period (prior to randomization). During the treatment period, the animals were observed daily for mortality or evidence of moribundity; these checks were separated by a minimum of four hours. Daily cage-side clinical observations were conducted during exposure, and daily hand-held clinical observations were conducted before and after exposure. Observations included, but were not limited to the following: changes in the skin and fur, eyes, and mucous membranes; effects on the respiratory, circulatory, autonomic and central nervous systems; and effects on somatomotor activity and behavior pattern.\nBody Weights and Body Weight Changes: Body weights were determined one day after animal receipt; at randomization; and prior to exposure on Study Day 1, 2, 3 and 7 (as applicable based on scheduled euthanization).\nPlasma and Tissue Samples/Necropsy: Whole blood samples were collected from three animals per time-point at approximately 0.5, 1, 2, 4, 8, 12, 24 and 48 hours and 7 days after dose administration for plasma drug level determination. Rats were anesthetized with 70% CO2/30% air and blood was collected from the retro-orbital plexus and placed into tubes containing anticoagulant (EDTA). Blood samples were placed on ice immediately following collection and processed (i.e., centrifuged) to plasma. The samples were then stored frozen (at approximately −70° C.) until analyzed. All study animals surviving to scheduled necropsy were euthanized by an overdose of an intraperitoneal injection of sodium pentobarbital at […]. Tissue specimens (lung, liver and kidney) were collected from three animals per time point at 0.5, 2, 24 and 48 hours and 7 days after dose administration. All tissue specimens were stored frozen at approximately −70° C. until analyzed."}, "Aspergillus fumigatus": {"tested_on": "Aspergillus fumigatus", "conditions": "cited from earlier work"}, "Aspergillus flavus": {"tested_on": "Aspergillus flavus", "conditions": "cited from earlier work"}, "Aspergillus nidulans": {"tested_on": "Aspergillus nidulans", "conditions": "cited from earlier work"}, "Aspergillus niger": {"tested_on": "Aspergillus niger", "conditions": "cited from earlier work"}, "Aspergillus terrus": {"tested_on": "Aspergillus terrus", "conditions": "cited from earlier work"}, "Aspergillus versicolor": {"tested_on": "Aspergillus versicolor", "conditions": "75 isolates; cited from earlier work"}, "Candida albicans": {"tested_on": "Candida albicans", "conditions": "2869 isolates; cited from earlier work"}, "Candida glabrata": {"tested_on": "Candida glabrata", "conditions": "747 isolates; cited from earlier work"}, "Candida tropicalis": {"tested_on": "Candida tropicalis", "conditions": "625 isolates; cited from earlier work"}, "Candida krusei": {"tested_on": "Candida krusei", "conditions": "136 isolates; cited from earlier work"}, "Candida parapsilosis": {"tested_on": "Candida parapsilosis", "conditions": "759 isolates; cited from earlier work"}, "Candida guilliermondii": {"tested_on": "Candida guilliermondii", "conditions": "61 isolates; cited from earlier work"}, "All Candida spp.": {"tested_on": "All Candida spp.", "conditions": "All Candida spp., 5,346 isolates; cited from earlier work"}, "[2]": {"conditions": "2 mg/kg, cited from earlier work"}}, "note": "Like-named read-outs stand apart in the source and are kept apart here."}
{"smiles": "CC[C@H](C)C[C@H](C)CCCCCCCCC(=O)N[C@H]1C[C@@H](O)[C@@H](NCCN)NC(=O)[C@@H]2[C@@H](O)CCN2C(=O)[C@H]([C@H](O)CCN)NC(=O)[C@H]([C@H](O)[C@@H](O)c2ccc(O)cc2)NC(=O)[C@@H]2C[C@@H](O)CN2C(=O)[C@H]([C@@H](C)O)NC1=O", "note": "[caspofungin]", "values": [{"measurement": "Clinical signs of toxicity", "setting": "[1]", "result": "no clinical signs of toxicity"}, {"measurement": "Effects on body weight", "setting": "[1]", "result": "no effects on body weight"}, {"measurement": "Gross necropsy findings", "setting": "[1]", "result": "no gross necropsy findings"}, {"measurement": "Mortality", "setting": "[1]", "result": "no test-article related mortality"}, {"measurement": "MIC90 Average (Geometric Mean MIC)", "setting": "Aspergillus fumigatus; 56 isolates", "result": 0.25, "unit": "µg/mL"}, {"measurement": "MIC90 Range", "setting": "Aspergillus fumigatus; 56 isolates", "result": "0.12 to 4", "unit": "µg/mL"}, {"measurement": "MEC Average (Mode)", "setting": "Aspergillus fumigatus; 1691 isolates", "result": 0.25, "unit": "µg/mL"}, {"measurement": "MEC Range", "setting": "Aspergillus fumigatus; 1691 isolates", "result": "0.016 to 32", "unit": "µg/mL"}, {"measurement": "MIC90 Average (Geometric Mean MIC)", "setting": "Aspergillus flavus; 13 isolates", "result": 0.2, "unit": "µg/mL"}, {"measurement": "MIC90 Range", "setting": "Aspergillus flavus; 13 isolates", "result": "0.06 to 2", "unit": "µg/mL"}, {"measurement": "MEC Average (Mode)", "setting": "Aspergillus flavus; 432 isolates", "result": 0.06, "unit": "µg/mL"}, {"measurement": "MEC Range", "setting": "Aspergillus flavus; 432 isolates", "result": "0.016 to 32", "unit": "µg/mL"}, {"measurement": "MIC90 Average (Geometric Mean MIC)", "setting": "Aspergillus nidulans; 13 isolates", "result": 0.44, "unit": "µg/mL"}, {"measurement": "MIC90 Range", "setting": "Aspergillus nidulans; 13 isolates", "result": "0.2 to 4", "unit": "µg/mL"}, {"measurement": "MEC Average (Mode)", "setting": "Aspergillus nidulans; 192 isolates", "result": 0.12, "unit": "µg/mL"}, {"measurement": "MEC Range", "setting": "Aspergillus nidulans; 192 isolates", "result": "0.032 to 16", "unit": "µg/mL"}, {"measurement": "MIC90 Average (Geometric Mean MIC)", "setting": "Aspergillus niger; 10 isolates", "result": 0.14, "unit": "µg/mL"}, {"measurement": "MIC90 Range", "setting": "Aspergillus niger; 10 isolates", "result": "0.06 to 0.5", "unit": "µg/mL"}, {"measurement": "MEC Average (Mode)", "setting": "Aspergillus niger; 440 isolates", "result": 0.06, "unit": "µg/mL"}, {"measurement": "MEC Range", "setting": "Aspergillus niger; 440 isolates", "result": "0.016 to 2", "unit": "µg/mL"}, {"measurement": "MIC90 Average (Geometric Mean MIC)", "setting": "Aspergillus terrus; 11 isolates", "result": 0.12, "unit": "µg/mL"}, {"measurement": "MIC90 Range", "setting": "Aspergillus terrus; 11 isolates", "result": "0.06 to .2 µg/mL"}, {"measurement": "MEC Average (Mode)", "setting": "Aspergillus terrus; 385 isolates", "result": 0.06, "unit": "µg/mL"}, {"measurement": "MEC Range", "setting": "Aspergillus terrus; 385 isolates", "result": "0.016 to 2", "unit": "µg/mL"}, {"measurement": "MEC Average (Mode)", "setting": "Aspergillus versicolor", "result": 0.12, "unit": "µg/mL"}, {"measurement": "MEC Range", "setting": "Aspergillus versicolor", "result": "0.032 to 2", "unit": "µg/mL"}, {"measurement": "MIC90", "setting": "Candida albicans", "result": 0.06, "unit": "µg/mL"}, {"measurement": "MIC90", "setting": "Candida glabrata", "result": 0.06, "unit": "µg/mL"}, {"measurement": "MIC90", "setting": "Candida tropicalis", "result": 0.06, "unit": "µg/mL"}, {"measurement": "MIC90", "setting": "Candida krusei", "result": 0.25, "unit": "µg/mL"}, {"measurement": "MIC90", "setting": "Candida parapsilosis", "result": 1, "unit": "µg/mL"}, {"measurement": "MIC90", "setting": "Candida guilliermondii", "result": 1, "unit": "µg/mL"}, {"measurement": "MIC90", "setting": "All Candida spp.", "result": 0.25, "unit": "µg/mL"}, {"measurement": "Kidney concentration, radiolabeled compound (Stone 2004)", "setting": "[2]; 0.5 h", "result": 9.15, "unit": "µg/g"}, {"measurement": "Kidney concentration, radiolabeled compound (Stone 2004)", "setting": "[2]; 2 h", "result": 10.60, "unit": "µg/g"}, {"measurement": "Kidney concentration, radiolabeled compound (Stone 2004)", "setting": "[2]; 24 h", "result": 11.40, "unit": "µg/g"}]}
